Test results taken from patent US9757375B2, “Compounds that inhibit human DNA ligases and methods of treating cancer” (University of Maryland, Baltimore, priority 2007, dated 2017).

How the values were obtained:
HeLa cell extract = assay: Cell extract assay with 5′-flap substrate (DNA replication and long patch base excision repair); type: biochemical, human; conditions: for Cell Extract 100 (μM): BER inhibited: kind of BER not given; for final ligation step of the flap substrate repair reaction / flap removal by FEN-1: HeLa extract, 100 μmol/L (also 25 μM in the source), FIG. 4A
Method: Extracts were prepared from human cervical cancer HeLa cells as described previously (27, 31). For base excision repair (BER) assays, the extraction buffer contained 100 mmol/L of KCl, whereas for nonhomologous end-joining (NHEJ) assays, extraction buffer contained 400 mmol/L of KCl. Where indicated, DNA ligases were immunodepleted from the extracts as described (32) using protein A or G Sepharose beads (GE Healthcare) and anti-Lig1, anti-LigIII (GeneTex), or anti-LigIV (ABCAM) antibodies. Depletion was confirmed by immunoblotting.
A labeled 5′-flap substrate (0.1 pmol; (31)) was incubated with 20 μg of extract in the absence or presence of ligase inhibitors (100 μmol/L) at 25° C. for 5 min in ligation buffer (final volume, 50 μL). For short patch BER, a linear duplex containing a single uracil residue was preincised by treatment with uracil DNA glycosylase and APE1 (both from NEB) to generate a strand break with 3′ hydroxyl and 5′ deoxyribose phosphate termini. Reactions (50 μL) containing 0.3 pmol of the incised DNA substrate, 10 μCi of [α^32P]dTTP, and 20 μg of extract either in the absence or presence of ligase inhibitors (100 μmol/L) were incubated at 25° C. for 2 min in ligation buffer. After separation by denaturing polyacrylamide gel electrophoresis, labeled oligonucleotides were detected in the dried gel by phosphorImager analysis (Molecular Dynamics).
Next we used published cell extract assays (16,27,28) that measure different DNA replication and repair transactions to confirm the specificity of the DNA ligase inhibitors. FIG. 4A, the flap substrate (0.1 pmol) was incubated with cell extract (20 μg) in the absence (lane 2, Mock) or presence of 100 μmol/L, of L189 (lane 3), L67 (lane 4), or L82 (lane 5). hLigI (lane 6, I-dp) and hLigIIIa (lane 7, III-dp) were immunodepleted from the cell extracts prior to incubation with the DNA substrate. Lane 1, DNA substrate alone (Sub). The positions of the DNA substrate (24-mer), cleaved product (18-mer), and fully repaired product (43-mer). The flap substrate shown in FIG. 4A corresponds to an intermediate generated on the lagging strand during DNA replication and in the long patch subpathway of base excision repair. Previously it has been shown that DNA ligase I completes these two DNA transactions after removal of the flap by FEN-1 (16,28). A cell extract from the human cervical cancer cell line HeLa was incubated with the indicated labeled flap substrate that mimics a common intermediate in DNA replication and long patch base excision repair in the absence or presence of Compounds 67, 82, 184 and 189 (25 μM). After separation by denaturing gel electrophoresis, labeled fragments corresponding to the DNA substrate, cleaved product and fully repaired product were detected by phosphorimaging (28).

HCT116 and MCF10A cells = assay: Cell proliferation screen, result stated for one or both cell lines; type: cell-based; conditions: Homo sapiens, read-out: IC50 of inhibition of proliferation
HCT116 cells = assay: Screen for potentiation of DNA damaging agents (MMS, camptothecin, cis-platinum, 3 aminobenzamide, ionizing radiation); type: cell-based, human; conditions: with 2 Gy ionizing radiation, tick mark only
[1] = test system: Human DNA ligases I, III and IV and T4 DNA ligase; assay: Step 1 of the ligation reaction: ligase-AMP complex formation with [α32P] ATP; type: biochemical; conditions: for inhibition of the first step of the ligation reaction (ligase-AMP formation): 100 μM, FIG. 3A
Method: Human DNA ligases I, III and IV and T4 DNA ligase were incubated with [α^32P] ATP in the absence or presence of compounds 67, 82 and 189 (100 μM). After separation by SDS-PAGE, the labeled ligase-AMP complex was detected by phosphorimaging.

T4 DNA ligase = target: T1, T4 DNA ligase (Enterobacteria phage T4, UniProt P00970); assay: Radioactive gel-based DNA ligation assay; type: biochemical, bacteriophage T4; conditions: FIG. 2B
T1 construct: purchased NEB
T1 sequence (P00970 1-487): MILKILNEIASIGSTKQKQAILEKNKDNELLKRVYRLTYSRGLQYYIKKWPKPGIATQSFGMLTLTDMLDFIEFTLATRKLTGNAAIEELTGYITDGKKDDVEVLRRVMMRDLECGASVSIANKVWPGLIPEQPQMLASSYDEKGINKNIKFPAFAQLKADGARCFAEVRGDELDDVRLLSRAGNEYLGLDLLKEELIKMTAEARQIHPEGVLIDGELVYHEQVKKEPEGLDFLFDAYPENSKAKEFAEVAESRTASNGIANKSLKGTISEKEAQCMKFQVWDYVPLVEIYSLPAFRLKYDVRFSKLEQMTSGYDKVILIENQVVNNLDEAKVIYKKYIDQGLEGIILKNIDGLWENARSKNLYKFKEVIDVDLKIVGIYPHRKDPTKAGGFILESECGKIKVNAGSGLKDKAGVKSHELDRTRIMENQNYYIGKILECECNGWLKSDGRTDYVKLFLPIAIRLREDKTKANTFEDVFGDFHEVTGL
Method: A radioactive gel-based DNA ligation assay was performed as previously described (22). A 25-mer (5′-CGCCAGGGTTTTCCCAGTCACGACC-3′), and a 5′-[^32P] end-labeled 18-mer (5′-GTA AAA CGA CGG CCA GTG-3′) were annealed to a complementary 44-mer oligonucleotide, generating a linear duplex with a central nick. DNA joining reactions (30 μL) containing 0.5 pmol of labeled DNA substrate, and hLigI (0.02 pmol), hLigIIIβ (0.02 pmol), hLigIV/XRCC4 (0.1 pmol), or T4 DNA ligase (0.02 pmol) in ligation buffer were incubated in the absence or presence of ligase inhibitors at 25° C. for 30 min.
The effect of Compounds 67, 82 and 189 on DNA joining by human DNA ligases I, III and IV and T4 DNA ligase was determined. The IC50 values determined for Compounds 67, 82 and 189 using the fluorescence-based DNA joining assay (22) are shown for each of the DNA ligases. The effect of Compounds 67, 82 and 189 on DNA joining by human DNA ligases I, III and IV and T4 DNA ligase was determined using the radioactive gel-based assay (24). Representative gels of DNA ligation assays. The results of three independent experiments are shown graphically.

Row | Compound | Cell Extract 100 (μM): BER inhibited (HeLa cell extract) | IC50 (HCT116 and MCF10A cells) | % growth inhibition HCT116 [2 Gy] 5-15 uM (HCT116 cells) | Mechanism: ligation step inhibited (1st step) ([1]; Table 5A) | inhibition of DNA joining by T4 DNA ligase (T4 DNA ligase) | inhibition of the first step of the ligation reaction (ligase-AMP formation) [1] | final ligation step of the flap substrate repair reaction (HeLa cell extract) | flap removal by FEN-1 (HeLa cell extract)
1 | O=C(Cn1cnc([N+](=O)[O-])n1)N/N=C/c1ccc(O)cc1O [Compound 151] | BER | < 20 µM | ✓ |  |  |  |  | 
2 | O=C(O)CSc1cc(Cl)c2nonc2c1[N+](=O)[O-] [Compound 64] |  |  |  | 1st step |  |  |  | 
3 | Cc1c(Br)cc(NCC(=O)N/N=C\c2cc([N+](=O)[O-])ccc2O)cc1Br [Compound 67] | BER | < 20 µM |  |  | not significantly inhibited | did not inhibit | inhibited the final ligation step of the repair reaction | had no effect on flap removal by FEN-1
4 | O=c1[nH]ncc(N/N=C\c2ccc(O)c([N+](=O)[O-])c2)c1Cl [Compound 82] | BER |  |  |  | not significantly inhibited | did not inhibit | inhibited the final ligation step of the repair reaction | had no effect on flap removal by FEN-1
5 | Nc1nc(S)nc(O)c1/N=C/c1ccccc1 [Compound 189] | BER |  |  |  | not significantly inhibited | did not inhibit | inhibited the final ligation step of the repair reaction | had no effect on flap removal by FEN-1
6 | CS(=O)(=O)NNC(=O)C(=O)NNc1ccccc1 [Compound 184] |  |  | ✓ |  |  |  |  | 
7 | O=C1Nc2ccccc2Oc2cc([N+](=O)[O-])cc([N+](=O)[O-])c21 [Compound 180] |  | < 20 µM |  |  |  |  |  | 
8 | O=C(c1ccc(O)cc1)c1ccccc1O [Compound 200] |  |  | ✓ |  |  |  |  | 
